From the Deep4Chem optical property database
Several values for one entry are separate records, joined by “and”; a condition that tells them apart may be missing. Identical values can stand only once.

Experiment: photoluminescence quantum yield (fraction); solvent given as SMILES
[1] = in c1cc(-c2cccc(-n3c4ccccc4c4ccccc43)c2)cc(-n2c3ccccc3c3ccccc32)c1

`Cc1cc(-n2c3ccccc3c3ccccc32)c(-n2c3ccccc3c3ccccc32)cc1C#N` gave a photoluminescence quantum yield [1] of 0.89, a photoluminescence quantum yield (in c1ccc2c(c1)c1ccccc1n2-c1ccc2sc3ccc(-n4c5ccccc5c5ccccc54)cc3c2c1) of 0.841 and a photoluminescence quantum yield (in c1ccc2c(c1)c1ccccc1n2-c1ccc2sc3ccc(-n4c5ccccc5c5cccnc54)cc3c2c1) of 0.982. It also gave a photoluminescence quantum yield (in c1ccc2c(c1)c1cccnc1n2-c1ccc2sc3ccc(-n4c5ccccc5c5cccnc54)cc3c2c1) of 0.879.

In the case of `Cc1ccc2c(c1)nnn2-c1c(C#N)c2c(N)ncnc2n1[C@H]1C[C@H](O)[C@@H](CO)O1`, the photoluminescence quantum yield (in CO) is reported as 0.007.

In the case of `CCn1c(-c2ccc(-c3ccc4c(c3)C(c3ccccc3)(c3ccccc3)c3ccccc3-4)cc2)c(-c2ccc3ccccc3c2)c(-c2ccc3ccccc3c2)c1-c1ccc(-c2ccc3c(c2)C(c2ccccc2)(c2ccccc2)c2ccccc2-3)cc1`, the photoluminescence quantum yield (in CCOC(C)=O) is reported as 0.99.

In the case of `COOCc1noc(-c2ccccc2)c1Cl`, the photoluminescence quantum yield (in C1CCCCC1) is reported as 0.006.

Work on `C[N+]1=c2ccc3c(c2C(C)(C)CC1)Oc1cc2c(cc1C=3c1ccccc1C(=O)O)C(c1ccccc1C(=O)O)=c1ccc3c(c1O2)C(C)(C)CC[N+]=3C` yielded a photoluminescence quantum yield (in ClC(Cl)Cl) of 0.5.

In the case of `COc1ccc(-c2nc3c([nH]2)C2=CC(=O)S[C@]2(C)[C@@]2(C)SC(=O)C=C32)cc1`, the photoluminescence quantum yield (in CC#N) is reported as 0.17.

For `N#Cc1c(C#N)c2cc(Cl)c(Cl)cc2c2cc(Cl)c(Cl)cc12`, the photoluminescence quantum yield (in ClC(Cl)Cl) was 0.01.

`CCCCCCOc1cc(/C=C/c2cc(OCCCCCC)c(/C=C/c3cc(OCCCCCC)c(C=O)cc3OCCCCCC)cc2OCCCCCC)c(OCCCCCC)cc1C=O` showed a photoluminescence quantum yield (in ClCCl) of 0.52.

`Cc1cccc2nc3c(=O)n(C)c(=O)nc-3n(C)c12` gave a photoluminescence quantum yield (in CC#N) of 0.07.

In the case of `Cc1cc(C)n2c1C=C1c3ccccc3C(c3c[nH]c4ccccc34)=[N+]1[B-]2(F)F`, the photoluminescence quantum yield (in C1CCOC1) is reported as 0.97, the photoluminescence quantum yield (in CC#N) is reported as 0.96 and the photoluminescence quantum yield (in CCCCCC) is reported as 0.99. The photoluminescence quantum yield (in CO) was 0.96, the photoluminescence quantum yield (in Cc1ccccc1) was 0.96 and the photoluminescence quantum yield (in ClCCl) was 0.98.

`Cc1c2ccc(=[N+]3CCCCC3)cc-2oc2cc(N3CCCCC3)ccc12` showed a photoluminescence quantum yield (in ClCCl) of 0.91.

For `COc1ccc(-c2c(-c3ccc(OC)cc3)c3c4c(cccc4c2-c2ccccc2)C(=O)c2ccccc2-3)cc1`, the photoluminescence quantum yield (in CC#N) was 0.55 and the photoluminescence quantum yield (in CO) was 0.05.

Compound `CC(C)(C)c1cc(C#Cc2ccc3c(C#Cc4cc(C(C)(C)C)cc(C(C)(C)C)c4)cc4c5cc(C#Cc6cc(C(C)(C)C)cc(C(C)(C)C)c6)ccc5c(C#Cc5cc(C(C)(C)C)cc(C(C)(C)C)c5)cc4c3c2)cc(C(C)(C)C)c1` has a photoluminescence quantum yield (in ClCCl) of 0.626.

For `CCCCCCOc1cc(C=C2c3ccccc3-c3ccccc32)c(OCCCCCC)cc1C=C1c2ccccc2C=Cc2ccccc21`, the photoluminescence quantum yield (in C1CCOC1) was 0.0013.

With `O=C(c1ccc(C(=O)c2ccc(N3c4ccccc4Oc4ccccc43)cc2)cc1)c1ccc(N2c3ccccc3Oc3ccccc32)cc1` the photoluminescence quantum yield (in Cc1ccccc1) was 0.1 and the photoluminescence quantum yield [1] was 0.36.

With `COc1ccc(N(c2ccc(C=C(c3ccccc3)c3ccccc3)cc2)c2ccc(C=C(c3ccccc3)c3ccccc3)cc2)cc1` the photoluminescence quantum yield (in Cc1ccccc1) was 0.06.

For `CN(C)c1ccc(/C=C/c2nc3ccc(Br)cc3nc2-c2ccccc2)cc1`, the photoluminescence quantum yield (in C1COCCO1) was 0.19, the photoluminescence quantum yield (in CC#N) was 0.01 and the photoluminescence quantum yield (in ClCCl) was 0.17.

`CCOC(=O)c1c2c3c(cccc3c3cc4ccccc4cc13)N(C)C2=O` showed a photoluminescence quantum yield (in CC#N) of 0.37.

For `COc1ccc(/C=C/C2=CC(/C=C/c3ccc(OC)c4ccccc34)=[O+][B-](F)(F)O2)c2ccccc12`, the photoluminescence quantum yield (in CC#N) was 0.12, the photoluminescence quantum yield (in CC(C)=O) was 0.21 and the photoluminescence quantum yield (in CCOC(C)=O) was 0.31. For the same compound, the photoluminescence quantum yield (in CCOCC) was 0.29, the photoluminescence quantum yield (in ClC(Cl)(Cl)Cl) was 0.23 and the photoluminescence quantum yield (in ClCCl) was 0.39.

For `COc1cccc(C2=c3c(c4ccc(C(C)(C)C)cc4c4cc(C(C)(C)C)ccc34)=[N+]3C2=C(c2ccccc2)c2c(-c4cccc(OC)c4)c4c5ccc(C(C)(C)C)cc5c5cc(C(C)(C)C)ccc5c4n2[B-]3(F)F)c1`, the photoluminescence quantum yield (in C1CCCCC1) was 0.62, the photoluminescence quantum yield (in C1CCOC1) was 0.5 and the photoluminescence quantum yield (in CC#N) was 0.52. The photoluminescence quantum yield (in Cc1ccccc1) was 0.43 and the photoluminescence quantum yield (in ClCCl) was 0.54.

For `Oc1ccccc1C1=NC2c3cccc4cccc(c34)C2N1c1ccccc1` (stereo not given), the photoluminescence quantum yield (in Cc1ccccc1) was 0.009.

`CCCCN(CCCC)c1ccc(C#Cc2cc(C#Cc3c(F)c(F)c(F)c(F)c3F)c(C#Cc3c(F)c(F)c(F)c(F)c3F)cc2C#Cc2ccc(N(CCCC)CCCC)cc2)cc1` gave a photoluminescence quantum yield (in ClCCl) of 0.17.

`O=c1oc2ccccc2cc1-c1nc2ccccc2o1` showed a photoluminescence quantum yield (in C1CCOC1) of 0.77, a photoluminescence quantum yield (in C1COCCO1) of 0.84 and a photoluminescence quantum yield (in CC1CCCCC1) of 0.94. The photoluminescence quantum yield (in CC#N) was 0.72, the photoluminescence quantum yield (in CC(C)=O) was 0.76 and the photoluminescence quantum yield (in CC(C)CO) was 0.8. For the same compound, the photoluminescence quantum yield (in CC(C)O) was 0.76, the photoluminescence quantum yield (in CCOC(C)=O) was 0.86 and the photoluminescence quantum yield (in CN(C)C=O) was 0.72. It also gave a photoluminescence quantum yield (in CO) of 0.67, a photoluminescence quantum yield (in CS(C)=O) of 0.77 and a photoluminescence quantum yield (in Cc1ccccc1) of 0.83. For the same compound, the photoluminescence quantum yield (in ClC(Cl)(Cl)Cl) was 0.92, the photoluminescence quantum yield (in ClC(Cl)Cl) was 0.87 and the photoluminescence quantum yield (in OCCO) was 0.68.

For `Cc1ccc2[nH]c(-c3ccc(-c4ccc(-c5ccc(-c6nc7cc(C)ccc7[nH]6)cc5)c(C)c4)cc3)nc2c1`, the photoluminescence quantum yield (in CN(C)C=O) was 0.86.

Work on `CCCCCCN1C(=O)c2cccc3c(-c4ccc(-c5ccc6c7c(cccc57)C(=O)N(CCCCCC)C6=O)s4)ccc(c23)C1=O` yielded a photoluminescence quantum yield (in ClC(Cl)Cl) of 0.15.

Work on `CCOC(=O)C1=C(N)n2c(=O)c3ccccc3c(=O)n2C1c1ccccc1` (stereo not given) yielded a photoluminescence quantum yield (in CS(C)=O) of 0.136.

With `c1ccc(-c2nc(-c3ccccc3)nc(-n3c4ccccc4c4cc(-n5c6ccccc6c6ccccc65)cc(-n5c6ccccc6c6ccccc65)c43)n2)cc1` the photoluminescence quantum yield (in O=P(c1ccccc1)(c1ccccc1)c1ccccc1Oc1ccccc1P(=O)(c1ccccc1)c1ccccc1) was 0.85.

Work on `COC(=O)C1=C(C(=O)OC)C2(c3ccccc3-c3c(Br)cc(Br)cc32)C2(/C=C/c3ccccc3)c3cc(OC)c(OC)cc3CCN12` (stereo not given) yielded a photoluminescence quantum yield (in ClCCl) of 0.00091.

For `NCCCCCCCCCCCCN1C(=O)c2ccc3c4ccc5c6c(ccc(c7ccc(c2c37)C1=O)c64)C(=O)N(c1ccc(O)cc1)C5=O`, the photoluminescence quantum yield (in CN(C)C=O) was 0.91.

In the case of `CN(C)c1ccc(C2=Nc3scc[n+]3[B-](F)(F)O2)cc1`, the photoluminescence quantum yield (in C1CCOC1) is reported as 0.99, the photoluminescence quantum yield (in CC#N) is reported as 0.1 and the photoluminescence quantum yield (in Cc1ccccc1) is reported as 0.99. For the same compound, the photoluminescence quantum yield (in ClCCl) was 0.86.

For `c1ccc(-c2nc(-c3ccc(N4c5ccccc5C(c5ccccc5)(c5ccccc5)c5ccccc54)cc3)cc(-c3ccc(N4c5ccccc5C(c5ccccc5)(c5ccccc5)c5ccccc54)cc3)n2)cc1`, the photoluminescence quantum yield (in Cc1ccccc1) was 0.5 and the photoluminescence quantum yield (in O=P(c1ccccc1)(c1ccccc1)c1ccc2oc3ccc(P(=O)(c4ccccc4)c4ccccc4)cc3c2c1) was 0.94.

`C(=C\c1c2ccccc2cc2ccccc12)/c1cccc2ccccc12` gave a photoluminescence quantum yield (in CC1CCCCC1) of 0.43 and a photoluminescence quantum yield (in CC#N) of 0.35.

In the case of `F[B-]1(F)Oc2ccccc2-c2n(-c3ccc(C(F)(F)F)cc3)c(-c3ccccc3)c(-c3ccccc3)[n+]21`, the photoluminescence quantum yield (in C1CCOC1) is reported as 0.49.

`COc1ccc2c(c1)-c1cc(OC)ccc1C2=O` gave a photoluminescence quantum yield (in C1CCCCC1) of 0.0028, a photoluminescence quantum yield (in CC#N) of 0.028 and a photoluminescence quantum yield (in CCO) of 0.002.

In the case of `COc1ccc(C2=C/C(=C\c3ccc(C#N)cc3)C(=O)O2)cc1OC`, the photoluminescence quantum yield (in C1COCCO1) is reported as 0.45.

Compound `C1=Cc2ccc3ccccc3c2NB1c1ccccc1` has a photoluminescence quantum yield (in C1CCCCC1) of 0.57.

In the case of `NS(=O)(=O)c1ccc(N2N=C(c3ccc(O)cc3)CC2c2ccc([N+](=O)[O-])cc2)cc1` (stereo not given), the photoluminescence quantum yield (in C1CCOC1) is reported as 0.01, the photoluminescence quantum yield (in C1COCCO1) is reported as 0.01 and the photoluminescence quantum yield (in CC#N) is reported as 0.01. It also gave a photoluminescence quantum yield (in CC(C)O) of 0.02, a photoluminescence quantum yield (in CCO) of 0.01 and a photoluminescence quantum yield (in CCOC(C)=O) of 0.01. It also gave a photoluminescence quantum yield (in CN(C)C=O) of 0.01 and a photoluminescence quantum yield (in CS(C)=O) of 0.01.

`C[Si](C)(C)C#Cc1ccc(C#Cc2cnc(C#Cc3ccccc3)nc2)cc1` gave a photoluminescence quantum yield (in C1CCCCC1) of 0.0085.

Compound `CC(C)(C)c1ccc(-c2c3c(c(-c4ccccc4)c4cc5ccccc5cc24)Cc2c(c(-c4ccccc4)c4cc5ccccc5cc4c2-c2ccc(C(C)(C)C)cc2)C3)cc1` has a photoluminescence quantum yield (in ClCCl) of 0.16.

`CC(C)(C)C1=CC2=C3C(=CC=C4C=CC(c5cc6c7cc(-c8ccc9ccc%10cc(C(C)(C)C)cc%11ccc8c9c%10%11)ccc7c(-c7ccc8ccc9cc(C(C)(C)C)cc%10ccc7c8c9%10)cc6c6cc(-c7ccc8ccc9cc(C(C)(C)C)cc%10ccc7c8c9%10)ccc56)=C(C=C2)C43)C1` (stereo not given) showed a photoluminescence quantum yield (in ClCCl) of 0.874.

Work on `CC(C)c1cccc(C(C)C)c1-n1c(=O)c2ccc3c4ccc5c(=O)n(-c6c(C(C)C)cccc6C(C)C)c(=O)c6cc7c(-c8ccccn8)nc8cc(c1=O)c2c3c8c7c4c56` yielded a photoluminescence quantum yield (in ClC(Cl)Cl) of 0.36.

With `CN(C)c1ccc2nc(-c3ccccc3)c(=O)oc2c1` the photoluminescence quantum yield (in c1ccccc1) was 0.526.

Compound `CC1=[N+]2C(=C(c3c4ccccc4cc4ccccc34)c3ccc(C)n3[B-]2(F)F)C=C1` has a photoluminescence quantum yield (in C1CCOC1) of 0.002, a photoluminescence quantum yield (in CC#N) of 0.002 and a photoluminescence quantum yield (in CCO) of 0.005. The photoluminescence quantum yield (in CN(C)C=O) was 0.003, the photoluminescence quantum yield (in CO) was 0.001 and the photoluminescence quantum yield (in CS(C)=O) was 0.002. The photoluminescence quantum yield (in Cc1ccccc1) was 0.29 and the photoluminescence quantum yield (in ClC(Cl)Cl) was 0.01 and 0.004.

Compound `CC(C)(C)c1cc2c(c(C(C)(C)C)c1)O[B-](F)(F)[n+]1c-2nc(-c2ccccc2)c2cc(Cl)ccc21` has a photoluminescence quantum yield (in Cc1ccccc1) of 0.001.

Work on `CCCCCCOc1ccc2c(c1)-c1cc3c(cc1[Si]2(C)C)-c1ccccc1[Si]3(C)C` yielded a photoluminescence quantum yield (in ClCCl) of 0.51.

For `CN(C)c1ccc(/C=C/C=C/c2ccc([N+](=O)[O-])c(O)c2)cc1`, the photoluminescence quantum yield (in C1CCCCC1) was 0.13, the photoluminescence quantum yield (in C1COCCO1) was 0.03 and the photoluminescence quantum yield (in CCCCCCC) was 0.1. For the same compound, the photoluminescence quantum yield (in Cc1ccccc1) was 0.11.

Work on `CC(=O)c1c2c(cc3c(N(C)C)cccc13)CCC2` yielded a photoluminescence quantum yield (in C1CCCCC1) of 0.28, a photoluminescence quantum yield (in C1CCOC1) of 0.39 and a photoluminescence quantum yield (in C1COCCO1) of 0.44. For the same compound, the photoluminescence quantum yield (in CC#N) was 0.23, the photoluminescence quantum yield (in CCO) was 0.01 and the photoluminescence quantum yield (in CS(C)=O) was 0.48. It also gave a photoluminescence quantum yield (in Cc1ccccc1) of 0.47, a photoluminescence quantum yield (in ClC(Cl)Cl) of 0.4 and a photoluminescence quantum yield (in ClCCl) of 0.6.

`C[Si]1(C)O[Si](C)(C)c2cc3cc4c(cc3cc21)C(=O)c1cc2cc3c(cc2cc1C4=O)[Si](C)(C)O[Si]3(C)C` showed a photoluminescence quantum yield (in ClC(Cl)Cl) of 0.01.

Work on `Nc1cccnc1` yielded a photoluminescence quantum yield (in C1CCCCC1) of 0.02, a photoluminescence quantum yield (in CC#N) of 0.05 and a photoluminescence quantum yield (in CCO) of 0.14. For the same compound, the photoluminescence quantum yield (in CCOCC) was 0.03 and the photoluminescence quantum yield (in O) was 0.16.
